This note sets out measurements from patent US4088752A, “Oral composition for plaque and caries inhibition” (Gaba AG, priority 1974, dated 1978).

Common to all, as to assay type: in vivo, Osbourne-Mendel rats
The nature of data set [1]: Fluoride content of maxillary molar surfaces. The conditions noted are these: maxillary molars m1 + m2, 15 sec. in 2N hydrochloric acid under agitation; for Fluoride concentration, cumulated layers: first and second cumulated layers, standard error 12.4; for Fluoride concentration, second layer: standard error 10.4; for Fluoride concentration, first layer: standard error 16.6. The procedure: (§1) Groups of 10 Osbourne-Mendel rats, which are particularly suitable for caries-inhibition studies, were subjected to the following treatments:
(§2) 0.1 ml of the test solutions were applied once daily during the whole 20-day experimental period in which diet 2000a and tap water were available ad libitum. On day 22 the animals were superinfected twice with Streptococcus mutans OMZ 176. Caries, molar surface dissolution rate and fluoride content were assessed acccording to routine procedures.
Fluoride concentrations in the first, the second and the
first and second cumulated layers (ppm F) in the maxillary
molars (m1 + m2, 15 sec. in 2N hydrochloric acid under

Data set [2] can be described thus: Postmortal rat molar solubility (molar surface dissolution rate). The conditions noted are these: per mand: m1 + m2 in 10 ml 0.025 M acetate buffer pH 4, 60 min., 37° C; standard error 5.7. The protocol: as §2
Data set [3] relates to Streptococcus mutans OMZ 176. Description: Rat caries experiment: smooth surface plaque, smooth surface caries and fissure caries after local application of aqueous test solutions. Conditions: for Average number per rat of smooth surface plaque extent (PU) / Average number per rat of advanced dentinal fissure lesions (B) / Average number per rat of smooth surface carious units (E): means of 10 animals; for Average number per rat of smooth surface plaque extent (PU): standard error 0.29; for Average number per rat of advanced dentinal fissure lesions (B): standard error 0.94; for Average number per rat of smooth surface carious units (E): standard error 1.81; for cariostatic effects of sodium fluoride and sodium trimetaphosphate together: smooth surface caries, combination of the two. The protocol: To examine the effect of the compounds used according to the present invention, a series of animal experiments were carried out. In these tests an aqueous solution of the test compounds was applied locally to determine its action in inhibiting plaque and caries.
(§3) On day 13 the animals with their dams were transferred to stainless-steel cages and fed powdered Nafag diet. The animals were weaned when 22 days old and distributed at random among the treatments.
as §2

Data set [4] can be described thus: Weight gain of rats during the 20-day experimental period. The conditions noted are these: means of 10 animals, standard error 3.4. The procedure:
as §1, §3, §2

Setting [5] is: rats, 20-day experimental period.

“N,N,N'-tris-(7-hydroxyethyl)-N'-octadecyl-1,3-diaminopropanepyrophosphate [Example 7]”: in data set [1], the “Fluoride concentration, cumulated layers” value worked out at 143 ppm F; the “Fluoride concentration, second layer” value came out at 94 ppm F; the “Fluoride concentration, first layer” value stood at 187 ppm F.
For the compound “N,N,N'-tris-(2-hydroxyethyl)-N'-octadecyl-1,3-diaminopropanediorthophosphate [Treatment 8]”, the “Postmortal rat molar solubility” value in data set [2] was found to be 121 μgP.
In the case of “N-(2-hydroxyethyl)-2-heptadecen-9-yl-imidazoline orthophosphate [Example 6]”, the “Smooth surface plaque, average extent (statement)” value in data set [3] (setting [5]) is “significantly lower (PF <0.001)”.
Regarding `O=P1([O-])OP(=O)([O-])OP(=O)([O-])O1.[Na+].[Na+].[Na+]` [Treatment 4, sodium trimetaphosphate], the “weight gains” value in data set [4] worked out at 60 g. For the same compound, in data set [3] (20-day experimental period), the “Average number per rat of smooth surface plaque extent (PU)” value worked out at 2.7, the “Average number per rat of advanced dentinal fissure lesions (B)” value came out at 6.1 and the “Average number per rat of smooth surface carious units (E)” value turned out to be 10.1. In data set [3] (setting [5]), the “Smooth surface caries (statement)” value is reported as “effective”. For the same compound, in data set [3], the “cariostatic effects of sodium fluoride and sodium trimetaphosphate together” value was “additive”.
On to “N,N,N'-tris-(2-hydroxyethyl)-N'-octadecyl-1,3-diaminopropanemonohydrofluoride monoorthophosphate [Treatment 9]”, for which, in data set [1], the “Fluoride concentration, cumulated layers” value is recorded as 74 ppm F; the “Fluoride concentration, second layer” value turned out to be 53 ppm F; the “Fluoride concentration, first layer” value was found to be 92 ppm F. The “Postmortal rat molar solubility” value in data set [2] amounted to 130 μgP.
Regarding sodium fluoride [Treatment 3], the “weight gains” value in data set [4] was 65 g. For the same compound, in data set [3] (20-day experimental period), the “Average number per rat of smooth surface plaque extent (PU)” value came to 2.5, the “Average number per rat of advanced dentinal fissure lesions (B)” value came to 9.8 and the “Average number per rat of smooth surface carious units (E)” value is 9.0. Further, the “Smooth surface caries (statement)” value in data set [3] (setting [5]) is on record as “effective”. In data set [3], the “cariostatic effects of sodium fluoride and sodium trimetaphosphate together” value is given as “additive”.
